Experimental data as given in patent US12466821B2 (Novartis AG, priority 2018, dated 2025).
Read-outs that look alike come from different tables or passages of the source.

How the values were obtained:
[1] = molecular target: human CMV DNA polymerase UL54 (Human cytomegalovirus (strain AD169) (HHV-5) (Human herpesvirus 5), UniProt P08546); assay: CMV polymerase biochemical assay (molecular beacon-based)
Outline: (§1)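 Readout was beacon fluorescence (ex 480, em 535 nm), used to derive IC50. Each dNTP was at 1.25 uM, with 200 nM primer and 100 nM beacon, after a 30-min RT inhibitor preincubation. Enzyme was 625 pM for HSV UL30 (20 min RT reaction) or 100 pM for CMV UL54 (60 min RT), both sf9-expressed MBP fusions, in pH 7.5 Tris buffer with MgCl2.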

[2] = molecular target: human HSV DNA polymerase UL30 (Human herpesvirus 1 (strain 17) (HHV-1) (Human herpes simplex virus 1), UniProt P04293); assay: HSV polymerase biochemical assay (molecular beacon-based)
Outline: as §1

[3] = tested on: Luciferase-encoding HCMV, AD169 strain; assay: CMV Luciferase assay (cellular herpesvirus replication); format: cell-based
Outline: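 Neonatal human dermal fibroblasts were pretreated 1 h with compound (final 0.0159–50 μM or 0.00318–10 μM, 0.5% DMSO), then infected at MOI 1 with AD169 carrying pp28-promoter luciferase. After 72 h at 37 °C, Renilla-Glo luminescence normalized to no-virus and virus-only controls; EC50 by 4-parameter logistic model.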

[4] = Human betaherpesvirus 5, AD169, read-out: CMV-Luc Cellular EC50

| SMILES | IC50 [1] [nM] | IC50 [2] [nM] | EC50 [3, 4] [nM] | EC50 ([3]; read-out: CMV-Luc Cellular EC50) [nM] |
| --- | --- | --- | --- | --- |
| COC1(S(=O)(=O)C2(CN3CCn4c(ccc(C(=O)NCc5ccc(C#N)c(F)c5)c4=O)C3=O)CC2)CC1 [Example 190] | 1.4 | 66.5 | 47.8 |  |
| CCS(=O)(=O)C1(CN2CCn3c(ccc(C(=O)NCc4ccc(C#N)c(F)c4)c3=O)C2=O)CC1 [Example 34] | 1.6 | 69.5 | 41.2 |  |
| O=C(NCc1ccc(Cl)cc1)c1ccc2n(c1=O)CCN(CC1(S(=O)(=O)C3CCC3)CC1)C2=O [Example 78, N-(4-chlorobenzyl)-2-((1-(cyclobutylsulfonyl)cyclopropyl)methyl)-1,6-dioxo-2,3,4,6-tetrahydro-1H-pyrido[1,2-a]pyrazine-7-carboxamide] | 1 | 30 | 15.7 |  |
| CC1(S(=O)(=O)C2(CN3CCn4c(ccc(C(=O)NCc5ccc(C#N)c(F)c5)c4=O)C3=O)CC2)CC1 [Example 94-2] | 0.3 | 25.3 | 7.9 |  |
| N#Cc1ccc(CNC(=O)c2ccc3n(c2=O)CCN(CC2(S(=O)(=O)C4(CF)CC4)CC2)C3=O)cc1 [Example 13] | 0.4 | 28.3 | 19.3 |  |
| CS(=O)(=O)C1(CN2CCn3c(ccc(C(=O)NCc4ccc(C#N)cc4)c3=O)C2=O)CC1 [Example 46] | 6 | 127 | 229 |  |
| O=C(NCc1ccc(Cl)cc1)c1ccc2n(c1=O)CCN(CC1(N3CCOCC3=O)CC1)C2=O [Example 203] | 410 | 12200 | 10000 |  |
| N#Cc1ccc(CNC(=O)c2ccc3n(c2=O)CCN(CC2(S(=O)(=O)C4COC4)CC2)C3=O)cc1F [Example 29] | 1.8 | 63.5 | 86.4 |  |
| CN(C)S(=O)(=O)C1(CN2CCn3c(ccc(C(=O)NCc4ccc(Cl)cc4)c3=O)C2=O)CC1 [Example 90-1, N-(4-chlorobenzyl)-2-((1-(N,N-dimethylsulfamoyl)cyclopropyl)methyl)-1,6-dioxo-2,3,4,6-tetrahydro-1H-pyrido[1,2-a]pyrazine-7-carboxamide] | 0.4 | 12.3 | 13.4 |  |
| O=C(NCc1ccc(Cl)cc1)c1ccc2n(c1=O)CCN(CCN1CCCS1(=O)=O)C2=O [Example 64, N-(4-chlorobenzyl)-2-(2-(1,1-dioxidoisothiazolidin-2-yl)ethyl)-1,6-dioxo-2,3,4,6-tetrahydro-1H-pyrido[1,2-a]pyrazine-7-carboxamide] | 33.6 | 181 | 96.1 |  |
| CN(C(=O)OC(C)(C)C)C1(CN2CCn3c(ccc(C(=O)NCc4ccc(Cl)cc4)c3=O)C2=O)CC1 [Example 206] | 1740 | 250000 | 10000 |  |
| Cc1cc(C(=O)NCc2ccc(Cl)cc2)c(=O)n2c1C(=O)N(CC1(S(C)(=O)=O)CC1)CC2 [Example 86-3] | 1.8 | 45.3 |  | 34.6 |
| CC(=O)NS(=O)(=O)C1(CN2CCn3c(ccc(C(=O)NCc4ccc(C#N)cc4)c3=O)C2=O)CC1 [Example 73-3] | 1.6 | 45.9 | 9310 |  |
| CS(=O)(=O)N(CCN1CCn2c(ccc(C(=O)NCc3ccc(Cl)cc3)c2=O)C1=O)C1CC1 [Example 115, N-(4-chlorobenzyl)-2-(2-(N-cyclopropylmethylsulfonamido)ethyl)-1,6-dioxo-2,3,4,6-tetrahydro-1H-pyrido[1,2-a]pyrazine-7-carboxamide] | 747 | 13600 | 15000 |  |
| CN(C)C(=O)OC1(CN2CCn3c(ccc(C(=O)NCc4ccc(Cl)cc4)c3=O)C2=O)CC1 [Example 172, 1-((7-((4-chlorobenzyl)carbamoyl)-1,6-dioxo-1,3,4,6-tetrahydro-2H-pyrido[1,2-a]pyrazin-2-yl)methyl)cyclopropyl dimethyl carbamate] | 2400 | 71000 | 10000 |  |
